From patent publication US12280072B2, “Oligosaccharide compound for inhibiting intrinsic coagulation factor X-enzyme complex, and preparation method therefor and uses thereof” (Jiuzhitang Co., Ltd., priority 2017, dated 2025)

Key:
Assay type in all cases: biochemical
intrinsic factor Xase = molecular target: T1, intrinsic factor Xase (Homo sapiens, UniProt P00740); test: Xase inhibitory activity assay; settings: read-out: Drug concentration required to inhibit 50% of coagulation factor activity (IC50, ng/mL) Xase (converted)
T1 construct: 60 nM FIXa; purchased
Protocol: Xase inhibitory activity assay: Detection was performed according to kit instructions and literature methods by combining the Factor VIII and […]. Specifically, to each well of a 96-well plate, 30 μL of test solution, control solution, or Tris-HCl buffer (negative control) was added, and 30 μl of FVIII (2 IU/ml), 30 μl of R2 (60 nM FIXa, containing FIIa, PC/PS, Ca^2+) were sequentially added, mixed by shaking the plate, incubated at 37° C. for 2 min; and then 30 μL of R1 (50 nM FX, containing direct thrombin inhibitor) was added, mixed by shaking the plate, incubated at 37° C. for 1 min; and then 30 μL of R3 (FXa chromogenic substrate SXa-11, about 8.4 mM) was added. The absorbance at 405 nm (OD405) was detected with a microplate reader, continuously measuring for 7.5 min at a interval of 30 s. The Xase activity and IC50 value of Xase inhibition of the test sample were calculated based on the OD405 change value.
(§1) Data processing: The average value of OD405 detected by the duplicated well was used as the detection value of the test sample and the reference of each concentration, and the slope of the linear fit between the detected value to the time value (the change rate of the absorbance value OD405/min) indicated enzymatic activity of coagulation factor. Taking the clotting factor activity of the negative control well as 100%, coagulation factor activity (percentage) in the presence of the test sample was calculated. The coagulation factor activity in the presence of the test sample was plotted against the concentration of the test sample, and fitted according to the following formula, to calculate the IC50 value: B=(IC50)^n/{(IC50)^n+[I]^n}
(§2) in the formula, B is the coagulation factor activity (percentage) in the presence of the test sample, [I] is the concentration of the test sample, IC50 is the half inhibitory concentration (concentration of the test sample required to inhibit 50% of the activity), and n is the Hill coefficient. • (4) Effect on surface activation and platelet activity: […]

human-controlled plasma [1] = test: Anticoagulant activity assay: APTT clotting time
Protocol: (§3) 8.2 Methods • (1) Preparation of sample solution: Oligosaccharide compounds A1˜A8, B1˜B11 and oligosaccharide mixtures C1, D1, D2 were all dissolved in Tris-HCl buffer and diluted to the desired series of solubility. • (2) Anticoagulant activity assay: 90 μL of human-controlled plasma was added to the sample or 10 μL of the control solution, and then the clotting time (APTT and PT) was detected by the MC-4000 coagulometer according to the method described in the APTT and PT kit instructions. • (3) Coagulation factor inhibitory activity analysis: […]

human-controlled plasma [2] = test: Anticoagulant activity assay: PT clotting time
Protocol: as §3

FIIa (Homo sapiens) = molecular target: T2, FIIa (Homo sapiens); test: AT-dependent IIa inhibitory activity assay; settings: in presence of AT; read-out: Drug concentration required to inhibit 50% of coagulation factor activity (IC50, ng/mL) Ha (AT)
T2 construct: antithrombin (i.e., active coagulation factor IIa); purchased
Protocol: AT-dependent IIa inhibitory activity assay: Heparin Anti-FIIa kit was used for detection. To a 96-well plate, 30 μL of sample, control solution or Tris-HCl buffer (negative control) was added, and then 30 μL of 1 IU/mL AT solution was added, mixed well by shaking the plate and incubated at 37° C. for 2 min; 30 μL of 24 IU/mL FIIa solution was added, mixed well by shaking the plate and incubated for 2 min at 37° C., and then 30 μL of pre-warmed 1.25 mM FIIa specific chromogenic substrate CS-01 (38) was added, mixed well by shaking the plate. The OD405 was detected by a microplate reader and the IC50 value of FIIa inhibition of each sample was calculated.
as §1, §2

FXa (Homo sapiens) = molecular target: T3, FXa (Homo sapiens); test: AT-dependent Xa inhibitory activity assay; settings: in presence of AT; read-out: Drug concentration required to inhibit 50% of coagulation factor activity (IC50, ng/mL) Xa (AT)
T3 construct: 8 μg/mL FXa solution; purchased
Protocol: AT-dependent Xa inhibitory activity assay: Heparin […] kit was used for detection. To a 96-well plate, 30 μL of sample, control solution or Tris-HCl buffer (negative control) was added, then 30 μL of 1 IU/mL AT solution was added, mixed well and incubated at 37° C. for 1 min; and than 30 μL of 8 μg/mL FXa solution was added, mixed well and incubated at 37° C. for 1 min, then 30 μL of pre-warmed 1.25 mM Xa chromogenic substrate SXa-11 was added. OD405 was detected by a microplate reader.
as §1, §2

plasma = test: TT (thrombin time) clotting time

T3 sequence (P01008 33-464): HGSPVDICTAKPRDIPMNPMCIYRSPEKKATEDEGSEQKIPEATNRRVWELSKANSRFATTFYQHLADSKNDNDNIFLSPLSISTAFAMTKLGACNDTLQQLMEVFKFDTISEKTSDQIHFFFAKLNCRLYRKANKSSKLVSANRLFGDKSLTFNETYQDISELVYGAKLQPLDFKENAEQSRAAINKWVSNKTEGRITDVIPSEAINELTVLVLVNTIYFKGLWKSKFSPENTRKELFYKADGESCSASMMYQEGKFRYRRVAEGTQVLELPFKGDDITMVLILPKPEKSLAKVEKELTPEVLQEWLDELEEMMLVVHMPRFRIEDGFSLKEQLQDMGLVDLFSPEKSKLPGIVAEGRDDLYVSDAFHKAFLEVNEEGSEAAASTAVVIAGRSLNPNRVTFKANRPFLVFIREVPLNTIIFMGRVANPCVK
T2 sequence (P01008 33-464): as above
T1 sequence (P00740 47-191 limits assumed): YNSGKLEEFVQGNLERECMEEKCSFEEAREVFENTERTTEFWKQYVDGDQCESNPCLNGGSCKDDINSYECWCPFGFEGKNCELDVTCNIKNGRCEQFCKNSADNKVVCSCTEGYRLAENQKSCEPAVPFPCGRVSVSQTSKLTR
T1 sequence (P00740 227-461 limits assumed): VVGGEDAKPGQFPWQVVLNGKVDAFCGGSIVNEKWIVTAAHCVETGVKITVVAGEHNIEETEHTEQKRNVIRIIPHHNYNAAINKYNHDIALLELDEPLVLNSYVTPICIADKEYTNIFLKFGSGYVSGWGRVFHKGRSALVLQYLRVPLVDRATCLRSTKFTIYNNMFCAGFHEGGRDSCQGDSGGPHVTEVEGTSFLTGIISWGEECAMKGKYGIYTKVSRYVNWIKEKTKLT

| SMILES | IC50 (intrinsic factor Xase) | IC50 (FIIa (Homo sapiens)) | IC50 (FXa (Homo sapiens)) | Drug concentration required for multiplication of coagulation time (μg/mL) APTT (human-controlled plasma [1]) | Drug concentration required for multiplication of coagulation time (μg/mL) PT (human-controlled plasma [2]) | Drug concentration required for multiplication of coagulation time (μg/mL) TT (plasma) |
| --- | --- | --- | --- | --- | --- | --- |
| CC(=O)NC(CO)C(OC1OC(C(=O)O)C(OC2OC(COS(=O)(=O)O)C(OS(=O)(=O)O)C(OC3OC(C(=O)O)C(OC4OC(COS(=O)(=O)O)C(OS(=O)(=O)O)C(OC5OC(C(=O)O)C(OC6OC(COS(=O)(=O)O)C(OS(=O)(=O)O)C(OC7OC(C(=O)O)C(OC8OC(COS(=O)(=O)O)C(OS(=O)(=O)O)C(OC9OC(C(=O)O)=CC(OC%10OC(C)C(OS(=O)(=O)O)C(O)C%10OS(=O)(=O)O)C9O)C8NC(C)=O)C(OC8OC(C)C(OS(=O)(=O)O)C(O)C8OS(=O)(=O)O)C7O)C6NC(C)=O)C(OC6OC(C)C(OS(=O)(=O)O)C(O)C6OS(=O)(=O)O)C5O)C4NC(C)=O)C(OC4OC(C)C(OS(=O)(=O)O)C(O)C4OS(=O)(=O)O)C3O)C2NC(C)=O)C(OC2OC(C)C(OS(=O)(=O)O)C(O)C2OS(=O)(=O)O)C1O)C(OS(=O)(=O)O)C(O)COS(=O)(=O)O [Compound A4, L-Fuc2S4S-(α1,3)-ΔUA-(α1,3)-{D-GaNAc4S6S-(β1,4)-[L-Fuc2S4S-(α1,3)]-D-GlcA-(β1,3)}n+1-D-GalNAc4S6S-ol] | 6.67 nM | > 1180 nM | > 1180 nM | 5.3 µg/mL | # (>128 μg/mL) | # (>128 μg/mL) |
| CC(=O)NC(CO)C(OC1OC(C(=O)O)C(OC2OC(COS(=O)(=O)O)C(OS(=O)(=O)O)C(OC3OC(C(=O)O)C(OC4OC(COS(=O)(=O)O)C(OS(=O)(=O)O)C(OC5OC(C(=O)O)C(OC6OC(COS(=O)(=O)O)C(OS(=O)(=O)O)C(OC7OC(C(=O)O)=CC(OC8OC(C)C(OS(=O)(=O)O)C(O)C8OS(=O)(=O)O)C7O)C6NC(C)=O)C(OC6OC(C)C(OS(=O)(=O)O)C(O)C6OS(=O)(=O)O)C5O)C4NC(C)=O)C(OC4OC(C)C(OS(=O)(=O)O)C(O)C4OS(=O)(=O)O)C3O)C2NC(C)=O)C(OC2OC(C)C(OS(=O)(=O)O)C(O)C2OS(=O)(=O)O)C1O)C(OS(=O)(=O)O)C(O)COS(=O)(=O)O [Compound A3, L-Fuc2S4S-(α1,3)-ΔUA-(α1,3)-{D-GaNAc4S6S-(β1,4)-[L-Fuc2S4S-(α1,3)]-D-GlcA-(β1,3)}n+1-D-GalNAc4S6S-ol] | 11.8 nM | > 1480 nM | > 1480 nM | 6.8 µg/mL | # (>128 μg/mL) | # (>128 μg/mL) |

Further lines, with some results ahead:

| IC50 (intrinsic factor Xase) | IC50 (FIIa (Homo sapiens)) | IC50 (FXa (Homo sapiens)) | SMILES | Drug concentration required for multiplication of coagulation time (μg/mL) APTT (human-controlled plasma [1]) | Drug concentration required for multiplication of coagulation time (μg/mL) PT (human-controlled plasma [2]) | Drug concentration required for multiplication of coagulation time (μg/mL) TT (plasma) |
| --- | --- | --- | --- | --- | --- | --- |
| 9.56 nM | > 1580 nM | > 1580 nM | CCOC(=O)c1ccc(NCC(O)C(OC2OC(C)C(OS(=O)(=O)O)C(O)C2OS(=O)(=O)O)C(OC2OC(COS(=O)(=O)O)C(OS(=O)(=O)O)C(OC3OC(C(=O)O)C(OC4OC(COS(=O)(=O)O)C(OS(=O)(=O)O)C(OC5OC(C(=O)O)C(OC6OC(COS(=O)(=O)O)C(OS(=O)(=O)O)C(OC7OC(C(=O)O)=CC(OC8OC(C)C(OS(=O)(=O)O)C(O)C8OS(=O)(=O)O)C7O)C6NC(C)=O)C(OC6OC(C)C(OS(=O)(=O)O)C(O)C6OS(=O)(=O)O)C5O)C4NC(C)=O)C(OC4OC(C)C(OS(=O)(=O)O)C(O)C4OS(=O)(=O)O)C3O)C2NC(C)=O)C(O)C(=O)O)cc1 [Compound B11, L-Fuc2S4S-(α1,3)-L-ΔUA-(α1,3)-{D-GalNAc4S6S-(β1,4)-[L-Fuc2S4S-(α1,3)]-D-GlcA-(β1,3)}2-D-GalNAc4S6S-(β1,4)-[L-Fuc2S4S-(α1,3)]-D-1-deoxy-1-amino-GlcA-ol-N-4-benzoic ethyl ester] | 6.3 µg/mL | # (>128 μg/mL) | # (>128 μg/mL) |
| 9.8 nM | > 1660 nM | > 1660 nM | CC(=O)NC1C(OC2C(C(=O)O)OC(OC3C(NC(C)=O)C(OC4C(C(=O)O)OC(OC5C(NC(C)=O)C(OC6C(C(=O)O)OC(O)C(O)C6OC6OC(C)C(OS(=O)(=O)O)C(OS(=O)(=O)O)C6O)OC(COS(=O)(=O)O)C5OS(=O)(=O)O)C(O)C4OC4OC(C)C(OS(=O)(=O)O)C(OS(=O)(=O)O)C4O)OC(COS(=O)(=O)O)C3OS(=O)(=O)O)C(O)C2OC2OC(C)C(OS(=O)(=O)O)C(OS(=O)(=O)O)C2O)OC(COS(=O)(=O)O)C(OS(=O)(=O)O)C1OC1OC(C(=O)O)=CC(OC2OC(C)C(OS(=O)(=O)O)C(OS(=O)(=O)O)C2O)C1O [Compound B8, L-Fuc3S4S-(α1,3)-L-ΔUA-(α1,3)-{D-GaNAc4S6S-(β1,4)-[L-Fuc3S4S-(α1,3)]-D-GlcA-(β1,4)}˜-D-GalNAc4S6S-(β1,4)-[L-Fuc3S4S-(α1,3)]-D-GlcA] | 5.8 µg/mL | # (>128 μg/mL) | # (>128 μg/mL) |
| 10.3 nM | > 1650 nM | > 1650 nM | CC(=O)NC1C(OC2C(C(=O)O)OC(OC3C(NC(C)=O)C(OC4C(C(=O)O)OC(OC5C(NC(C)=O)C(OC(C(O)C(=O)O)C(OC6OC(C)C(OS(=O)(=O)O)C(OS(=O)(=O)O)C6O)C(O)CO)OC(COS(=O)(=O)O)C5OS(=O)(=O)O)C(O)C4OC4OC(C)C(OS(=O)(=O)O)C(OS(=O)(=O)O)C4O)OC(COS(=O)(=O)O)C3OS(=O)(=O)O)C(O)C2OC2OC(C)C(OS(=O)(=O)O)C(OS(=O)(=O)O)C2O)OC(COS(=O)(=O)O)C(OS(=O)(=O)O)C1OC1OC(C(=O)O)=CC(OC2OC(C)C(OS(=O)(=O)O)C(OS(=O)(=O)O)C2O)C1O [Compound B3, L-Fuc3S4S-(α1,3)-L-ΔUA-(α1,3)-{D-GalNAc4S6S-(β1,4)-[L-Fuc3S4S-(α1,3)]-D-GlcA-(β1,3)}˜-D-GalNAc4S6S-(β1,4)-[L-Fuc3S4S-(α1,3)]-D-GlcA-ol] | 6.1 µg/mL | # (>128 μg/mL) | # (>128 μg/mL) |
| 26.8 nM | > 2300 nM | > 2300 nM | CC(=O)NC1C(OC2C(C(=O)O)OC(OC3C(NC(C)=O)C(OC4C(C(=O)O)OC(O)C(O)C4OC4OC(C)C(OS(=O)(=O)O)C(OS(=O)(=O)O)C4O)OC(COS(=O)(=O)O)C3OS(=O)(=O)O)C(O)C2OC2OC(C)C(OS(=O)(=O)O)C(OS(=O)(=O)O)C2O)OC(COS(=O)(=O)O)C(OS(=O)(=O)O)C1OC1OC(C(=O)O)=CC(OC2OC(C)C(OS(=O)(=O)O)C(OS(=O)(=O)O)C2O)C1O [Compound B7, L-Fuc3S4S-(α1,3)-L-ΔUA-(α1,3)-{D-GaNAc4S6S-(β1,4)-[L-Fuc3S4S-(α1,3)]-D-GlcA-(β1,4)}˜-D-GalNAc4S6S-(β1,4)-[L-Fuc3S4S-(α1,3)]-D-GlcA] | 7.3 µg/mL | # (>128 μg/mL) | # (>128 μg/mL) |
